Test results published in patent US20160106439A1, “PNEUMATIC TOURNIQUET” (BIONUMERIK PHARMACEUTICALS, INC., priority 2013, published 2016).
Entries after “also recorded” stand apart in the source; their conditions may differ. Read-outs that look alike come from different tables or passages of the source.

What was measured:
Recombinant human Trx [1] = molecular target: T1, Recombinant human Trx (Homo sapiens, UniProt P10599); type: biochemical; set-up: 6xHis (N); purchased Sigma (Trx); American Diagnostica (bovine TrxR); details: over MSSH and MSSCE
T1 sequence (P10599 1-105): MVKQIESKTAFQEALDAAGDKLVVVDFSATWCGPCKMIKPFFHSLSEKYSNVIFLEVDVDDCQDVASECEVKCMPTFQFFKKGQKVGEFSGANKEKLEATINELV
Protocol: See, Luthman M and Holmgren A. Rat liver thioredoxin and thioredoxin reductase: purification and characterization. […] All disulfides were added to reactions as 10x solutions in buffer. The total volume of each reaction was 0.1 mL. Reactions were initiated by the addition of TrxR and were incubated at 25° C. for 40 minutes. Reactions were analyzed using a Molecular Devices SpectraMax Plus UV/vis plate reader and the activity was calculated using a 4 minute linear portion of each assay.

WT EGFR kinase = WT EGFR kinase (Homo sapiens, UniProt P00533); experiment: WT EGFR kinase assay (ADP-glo); details: for more inhibition of WT EGFR relative to 4 nM Erlotinib alone: 10 μM ATP; for increased inhibition of WT EGFR relative to 20 nM Erlotinib alone: 100 μM ATP
TrxR/Trx system = molecular target: T2, TrxR/Trx system (Homo sapiens, UniProt P10599); experiment: NADPH oxidation by TrxR and Trx; type: biochemical; details: increasing concentrations of the substance
T2 construct: 6xHis (N); purchased Sigma (Trx); American Diagnostica (bovine TrxR)
T2 sequence (P10599 1-105): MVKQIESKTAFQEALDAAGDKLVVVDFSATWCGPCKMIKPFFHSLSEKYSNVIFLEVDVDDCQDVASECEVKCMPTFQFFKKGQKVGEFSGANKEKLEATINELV

[2] = single oral dose of 100 mg, healthy volunteers; cited from earlier work
[3] = tested on: non-small cell lung cancer; details: patients >=65 years treated with carboplatin and paclitaxel; cited from earlier work
some cell lines = experiment: Mesna cytotoxicity in vitro (unpublished data)
Recombinant human Trx [4] = molecular target: T1, Recombinant human Trx; experiment: LC MS of Trypsin digested Trx after incubation with Tavocept, mesna or glutathione; type: binding; set-up: purchased Sigma (SigmaAldrich); host or cells: E. coli; details: fragment CMPTFQFFK (cys73); 10 mM, 4 to 6 hours
[5] = tested on: bovine brain microtubule protein (α-/β-tubulin); experiment: Microtubule protein polymerization assay (OD350) and electron microscopy; type: biochemical; details: for effect on GTP-catalyzed microtubule protein polymerization: preincubated with microtubule protein on ice 20 minutes, 37° C.
thioredoxin = molecular target: T3, thioredoxin (Homo sapiens, UniProt P10599); experiment: LC-MS of thioredoxin incubations; type: binding; details: ion at m/z 1288.3
T3 construct: purchased Sigma (SigmaAldrich); host or cells: E. coli

[6] = read-out: Cmax for mesna; 41 g/m^2 Tavocept; cited from earlier work
[7] = molecular target: T4, TrxR/Trx insulin disulfide reduction (Homo sapiens, UniProt P10599); experiment: TrxR/Trx insulin disulfide reduction assay with isolated Trx species; type: biochemical; details: free Tavocept or glutathione disulfide removed
T4 construct: purchased Sigma; host or cells: E. coli (said of the Sigma Trx)
T4 sequence (P10599 1-105): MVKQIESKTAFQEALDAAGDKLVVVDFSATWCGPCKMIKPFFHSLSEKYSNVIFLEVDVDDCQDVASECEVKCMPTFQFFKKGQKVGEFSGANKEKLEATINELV

Chain of WT EGFR kinase (P00533 25-1210): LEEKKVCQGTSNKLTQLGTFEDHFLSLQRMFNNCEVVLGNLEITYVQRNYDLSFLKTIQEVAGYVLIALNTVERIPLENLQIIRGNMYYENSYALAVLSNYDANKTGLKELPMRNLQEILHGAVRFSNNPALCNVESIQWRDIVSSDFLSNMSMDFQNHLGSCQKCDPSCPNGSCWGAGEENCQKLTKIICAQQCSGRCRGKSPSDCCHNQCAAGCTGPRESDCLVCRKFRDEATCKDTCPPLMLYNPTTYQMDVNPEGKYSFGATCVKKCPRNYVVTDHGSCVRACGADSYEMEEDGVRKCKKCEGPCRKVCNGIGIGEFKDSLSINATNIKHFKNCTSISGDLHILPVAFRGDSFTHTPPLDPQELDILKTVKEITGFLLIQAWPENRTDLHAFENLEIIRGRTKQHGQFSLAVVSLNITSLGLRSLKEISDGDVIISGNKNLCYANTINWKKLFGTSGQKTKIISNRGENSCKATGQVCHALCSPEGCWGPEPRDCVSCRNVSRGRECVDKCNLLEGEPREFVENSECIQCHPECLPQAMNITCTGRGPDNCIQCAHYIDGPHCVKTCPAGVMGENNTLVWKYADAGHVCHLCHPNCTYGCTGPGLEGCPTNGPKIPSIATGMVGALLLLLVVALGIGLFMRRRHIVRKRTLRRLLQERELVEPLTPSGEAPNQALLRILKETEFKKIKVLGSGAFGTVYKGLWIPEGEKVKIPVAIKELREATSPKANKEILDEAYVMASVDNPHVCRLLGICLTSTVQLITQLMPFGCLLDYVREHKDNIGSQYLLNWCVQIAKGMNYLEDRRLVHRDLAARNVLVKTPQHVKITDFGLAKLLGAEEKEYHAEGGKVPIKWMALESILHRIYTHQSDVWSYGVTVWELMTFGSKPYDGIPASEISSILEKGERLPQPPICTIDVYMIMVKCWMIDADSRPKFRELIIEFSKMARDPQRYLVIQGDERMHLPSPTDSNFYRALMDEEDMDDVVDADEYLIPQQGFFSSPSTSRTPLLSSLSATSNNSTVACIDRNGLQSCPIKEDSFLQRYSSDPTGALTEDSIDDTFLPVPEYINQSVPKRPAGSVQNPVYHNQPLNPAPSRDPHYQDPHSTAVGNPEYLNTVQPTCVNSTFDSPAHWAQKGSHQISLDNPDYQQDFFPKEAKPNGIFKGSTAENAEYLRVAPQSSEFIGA

Molecule: NC(CSSCCS(=O)(=O)O)C(=O)O (stereo not drawn) [MSSC, mesna-cysteine disulfide]
- Substrate preference of Trx (Recombinant human Trx [1]): preferred slightly
- more inhibition of WT EGFR relative to 4 nM Erlotinib alone (WT EGFR kinase; 0.75 mM + 4 nM Erlotinib): 16%
- more inhibition of WT EGFR relative to 4 nM Erlotinib alone (WT EGFR kinase; 1.5 mM + 4 nM Erlotinib): 34%
- more inhibition of WT EGFR relative to 4 nM Erlotinib alone (WT EGFR kinase; 2.5 mM + 4 nM Erlotinib): 54%
- increased inhibition of WT EGFR relative to 20 nM Erlotinib alone (WT EGFR kinase; 0.2 mM + 20 nM Erlotinib): 17%
- increased inhibition of WT EGFR relative to 20 nM Erlotinib alone (WT EGFR kinase; 2.5 mM + 20 nM Erlotinib): 15%
- NADPH oxidation by TrxR and Trx (TrxR/Trx system): increases

Molecule: C#Cc1cccc(Nc2ncnc3cc(OCCOC)c(OCCOC)cc23)c1 [Erlotinib]
- Cmax [2]: 1390 ng/mL

Molecule: bevacizumab [Avastin]
- Survival advantage [3]: did not confer a survival advantage

Molecule: O=S(=O)([O-])CCS.[Na+] [mesna, 2-mercapto ethane sulfonate]
- Concentrations that can be cytotoxic (some cell lines): ≤ 400 µM
- Mesna-Cysteine Adduct Detected? (Recombinant human Trx [4]): presence of a mesna adduct on Cys73 of Trx
- effect alone on MTP polymerization or paclitaxel-induced hyperpolymerization [5]: no detectable effect
- protection against monoaquocisplatin-induced loss of polymerization ([5]; mesna 200 μM preincubated 30 minutes with monoaquocisplatin 36 μM): prevented the monoaquocisplatin-induced loss; also recorded: able to protect
- effect on GTP-catalyzed microtubule protein polymerization [5]: did not affect
- effect on GTP-catalyzed microtubule protein polymerization ([5]; listed as Mesna): does not affect
- mesna adduct on thioredoxin fragment CMPTFQFFK (thioredoxin): Cys73-mesna adduct
- Cmax [6]: ~323 µM

Molecule: N[C@@H](CCC(=O)N[C@@H](CSSCCS(=O)(=O)O)C(=O)NCC(=O)O)C(=O)O [MSSG, mesna-glutathione disulfide]
- Substrate preference of Trx (Recombinant human Trx [1]): preferred slightly
- NADPH oxidation by TrxR and Trx (TrxR/Trx system): increases

B1: Trx-mesna: Trx covalently modified by a Tavocept-derived mesna moiety (conjugate, UniProt P10599 2-105, looked up)
Thioredoxin: VKQIESKTAFQEALDAAGDKLVVVDFSATWCGPCKMIKPFFHSLSEKYSNVIFLEVDVDDCQDVASECEVKCMPTFQFFKKGQKVGEFSGANKEKLEATINELV
modifications: mesna-modified
notes: Trx covalently modified by a Tavocept-derived mesna moiety
- Effect on initial velocity relative to apo-Trx [7]: clear effect on initial velocity

B2: Trx-GSH: Trx modified by glutathione, prepared with glutathione disulfide as control (conjugate, UniProt P10599 2-105, looked up)
Thioredoxin: VKQIESKTAFQEALDAAGDKLVVVDFSATWCGPCKMIKPFFHSLSEKYSNVIFLEVDVDDCQDVASECEVKCMPTFQFFKKGQKVGEFSGANKEKLEATINELV
modifications: glutathione-modified
notes: Trx modified by glutathione, prepared with glutathione disulfide as control
- Effect on initial velocity relative to apo-Trx [7]: clear effect on initial velocity
